Drawing on ChEMBL document CHEMBL5620355, “Discovery of intracellular self-assembly protein degraders driven by tumor-specific activatable bioorthogonal reaction” (Eur J Med Chem, 2023), this text covers Activity, viability and Stability for 2 compounds.

The target in data set [1] is T1, Ephrin type-B receptor 4 (Homo sapiens) (UniProt P54760).
T1 sequence (whole entry): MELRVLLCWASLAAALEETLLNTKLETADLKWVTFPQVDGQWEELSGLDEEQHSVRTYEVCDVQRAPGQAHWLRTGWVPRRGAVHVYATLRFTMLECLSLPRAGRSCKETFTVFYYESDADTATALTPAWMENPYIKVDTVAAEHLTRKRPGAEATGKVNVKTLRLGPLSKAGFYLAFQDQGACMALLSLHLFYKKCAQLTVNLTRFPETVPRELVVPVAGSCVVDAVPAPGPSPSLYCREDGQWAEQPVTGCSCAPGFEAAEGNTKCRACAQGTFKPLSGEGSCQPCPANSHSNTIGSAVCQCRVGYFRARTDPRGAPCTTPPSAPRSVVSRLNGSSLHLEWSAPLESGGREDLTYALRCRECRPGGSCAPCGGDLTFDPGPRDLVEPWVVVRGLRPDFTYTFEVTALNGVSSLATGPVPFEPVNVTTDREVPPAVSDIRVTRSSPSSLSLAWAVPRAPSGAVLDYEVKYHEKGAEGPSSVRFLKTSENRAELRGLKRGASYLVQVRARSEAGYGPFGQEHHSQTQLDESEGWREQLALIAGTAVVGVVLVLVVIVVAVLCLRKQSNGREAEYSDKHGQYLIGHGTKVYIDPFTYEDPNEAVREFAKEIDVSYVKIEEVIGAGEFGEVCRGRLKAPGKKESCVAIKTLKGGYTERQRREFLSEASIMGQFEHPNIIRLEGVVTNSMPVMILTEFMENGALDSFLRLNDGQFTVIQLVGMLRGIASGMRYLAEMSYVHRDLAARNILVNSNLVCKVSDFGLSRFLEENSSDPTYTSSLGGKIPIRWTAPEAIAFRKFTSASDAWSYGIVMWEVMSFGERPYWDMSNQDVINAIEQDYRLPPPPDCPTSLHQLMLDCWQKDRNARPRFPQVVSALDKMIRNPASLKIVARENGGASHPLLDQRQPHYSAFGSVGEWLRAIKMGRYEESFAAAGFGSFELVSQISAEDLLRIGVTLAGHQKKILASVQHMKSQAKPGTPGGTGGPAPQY
Put plainly: Induction of EphB4 degradation in human U87 cells upto 10 uM incubated for 48 hrs by Western blot analysis. Format: cell-based. (In general: A western blot detects proteins with antibodies after separation by electrophoresis.)

Data set [2] concerns U-87 MG. Put plainly: Induction of apoptosis in human U87 cells assessed as viable cells at 0.1 uM incubated for 48 hrs in presence of (2S,4R)-1-((S)-2-(5-azidopentanamido)-3,3-dimethylbutanoyl)-4-hydroxy-N-(4-(4-methylthiazol-5-yl)benzyl)pyrrolidine-2-carboxamide by Annexin V-FLTC/PI staining based flow cytometry (reference value: 86.74 %). The data set is classed as functional, U-87MG ATCC. Conditions: read-out: Activity. A general note: A flow cytometer gives signals particle by particle.

In data set [3] the target is Vascular endothelial growth factor receptor 2 (Homo sapiens) (UniProt P35968). Put plainly: Induction of VEGFR2 degradation in human U87 cells upto 10 uM incubated for 48 hrs by Western blot analysis. Format: cell-based.
Vascular endothelial growth factor receptor 2 (Homo sapiens), sequence (P35968 whole entry): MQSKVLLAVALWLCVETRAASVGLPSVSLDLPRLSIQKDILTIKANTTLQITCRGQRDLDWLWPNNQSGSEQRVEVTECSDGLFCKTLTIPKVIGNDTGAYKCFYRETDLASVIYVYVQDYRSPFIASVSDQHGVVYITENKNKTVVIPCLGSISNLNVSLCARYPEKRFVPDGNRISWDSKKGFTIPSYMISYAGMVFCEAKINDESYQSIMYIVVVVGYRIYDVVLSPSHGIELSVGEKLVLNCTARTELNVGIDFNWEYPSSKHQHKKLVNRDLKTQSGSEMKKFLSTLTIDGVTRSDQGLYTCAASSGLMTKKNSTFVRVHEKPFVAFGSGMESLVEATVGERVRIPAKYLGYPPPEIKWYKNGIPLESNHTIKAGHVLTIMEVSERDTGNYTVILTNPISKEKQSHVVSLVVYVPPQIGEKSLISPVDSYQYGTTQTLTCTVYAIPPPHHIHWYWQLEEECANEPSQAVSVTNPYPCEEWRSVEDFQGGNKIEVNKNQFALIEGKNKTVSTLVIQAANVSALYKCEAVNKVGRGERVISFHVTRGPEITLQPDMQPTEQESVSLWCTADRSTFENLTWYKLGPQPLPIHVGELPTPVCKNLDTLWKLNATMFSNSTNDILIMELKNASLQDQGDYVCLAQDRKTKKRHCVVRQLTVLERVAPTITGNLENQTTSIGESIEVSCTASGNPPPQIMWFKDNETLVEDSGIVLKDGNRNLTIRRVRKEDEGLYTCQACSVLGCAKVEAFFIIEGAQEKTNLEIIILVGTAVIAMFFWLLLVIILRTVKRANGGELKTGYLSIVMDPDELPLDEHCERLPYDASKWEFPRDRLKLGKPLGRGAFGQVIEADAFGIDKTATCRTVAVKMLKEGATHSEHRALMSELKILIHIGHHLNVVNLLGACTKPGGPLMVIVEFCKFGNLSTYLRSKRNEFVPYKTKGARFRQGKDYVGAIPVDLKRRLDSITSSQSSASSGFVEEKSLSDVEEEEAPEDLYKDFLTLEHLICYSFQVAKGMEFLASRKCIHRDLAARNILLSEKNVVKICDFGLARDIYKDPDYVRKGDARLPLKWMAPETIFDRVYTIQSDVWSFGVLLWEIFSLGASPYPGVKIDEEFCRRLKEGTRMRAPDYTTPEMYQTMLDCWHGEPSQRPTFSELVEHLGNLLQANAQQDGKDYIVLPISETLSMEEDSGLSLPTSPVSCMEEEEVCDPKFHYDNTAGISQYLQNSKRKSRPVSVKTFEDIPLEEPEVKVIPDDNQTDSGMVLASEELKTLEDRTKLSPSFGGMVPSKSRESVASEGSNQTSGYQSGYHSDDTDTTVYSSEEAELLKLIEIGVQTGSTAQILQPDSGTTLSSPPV
For data set [4], the system named is U-87 MG. Put plainly: Induction of apoptosis in human U87 cells assessed as viable cells at 5 uM incubated for 48 hrs in presence of (2S,4R)-1-((S)-2-(5-azidopentanamido)-3,3-dimethylbutanoyl)-4-hydroxy-N-(4-(4-methylthiazol-5-yl)benzyl)pyrrolidine-2-carboxamide by Annexin V-FLTC/PI staining based flow cytometry (reference value: 86.74 %). The data set is classed as functional, U-87MG ATCC. The note with it: read-out: Activity.

In data set [5] the test system is U-87 MG. Briefly: Induction of apoptosis in human U87 cells assessed as late apoptotic cells at 1 uM incubated for 48 hrs in presence of (2S,4R)-1-((S)-2-(5-azidopentanamido)-3,3-dimethylbutanoyl)-4-hydroxy-N-(4-(4-methylthiazol-5-yl)benzyl)pyrrolidine-2-carboxamide by Annexin V-FLTC/PI staining based flow cytometry (reference value: 3.71 %). The data set is classed as functional, U-87MG ATCC.

In data set [6] the test system is U-87 MG. Put plainly: Induction of apoptosis in human U87 cells assessed as late apoptotic cells at 0.1 uM incubated for 48 hrs in presence of (2S,4R)-1-((S)-2-(5-azidopentanamido)-3,3-dimethylbutanoyl)-4-hydroxy-N-(4-(4-methylthiazol-5-yl)benzyl)pyrrolidine-2-carboxamide by Annexin V-FLTC/PI staining based flow cytometry (reference value: 3.71 %). The data set is classed as functional, U-87MG ATCC.

The target in data set [7] is Vascular endothelial growth factor receptor 2 (Homo sapiens) (UniProt P35968). Briefly: Induction of VEGFR2 degradation in human U87 cells at 2 uM incubated for 48 hrs in presence of (2S,4R)-1-((S)-2-(5-azidopentanamido)-3,3-dimethylbutanoyl)-4-hydroxy-N-(4-(4-methylthiazol-5-yl)benzyl)pyrrolidine-2-carboxamide by Western blot analysis. The data set is classed as cell-based.

For data set [8], the system named is U-87 MG. Put plainly: Induction of apoptosis in human U87 cells assessed as early apoptotic cells at 1 uM incubated for 48 hrs in presence of (2S,4R)-1-((S)-2-(5-azidopentanamido)-3,3-dimethylbutanoyl)-4-hydroxy-N-(4-(4-methylthiazol-5-yl)benzyl)pyrrolidine-2-carboxamide by Annexin V-FLTC/PI staining based flow cytometry (reference value: 8.95 %). The data set is classed as functional, U-87MG ATCC.

The target in data set [9] is Platelet-derived growth factor receptor beta (Homo sapiens) (UniProt P09619). Put plainly: Induction of PDGFR-beta degradation in human U87 cells upto 10 uM incubated for 48 hrs by Western blot analysis. Format: cell-based.
Platelet-derived growth factor receptor beta (Homo sapiens), sequence (P09619 whole entry): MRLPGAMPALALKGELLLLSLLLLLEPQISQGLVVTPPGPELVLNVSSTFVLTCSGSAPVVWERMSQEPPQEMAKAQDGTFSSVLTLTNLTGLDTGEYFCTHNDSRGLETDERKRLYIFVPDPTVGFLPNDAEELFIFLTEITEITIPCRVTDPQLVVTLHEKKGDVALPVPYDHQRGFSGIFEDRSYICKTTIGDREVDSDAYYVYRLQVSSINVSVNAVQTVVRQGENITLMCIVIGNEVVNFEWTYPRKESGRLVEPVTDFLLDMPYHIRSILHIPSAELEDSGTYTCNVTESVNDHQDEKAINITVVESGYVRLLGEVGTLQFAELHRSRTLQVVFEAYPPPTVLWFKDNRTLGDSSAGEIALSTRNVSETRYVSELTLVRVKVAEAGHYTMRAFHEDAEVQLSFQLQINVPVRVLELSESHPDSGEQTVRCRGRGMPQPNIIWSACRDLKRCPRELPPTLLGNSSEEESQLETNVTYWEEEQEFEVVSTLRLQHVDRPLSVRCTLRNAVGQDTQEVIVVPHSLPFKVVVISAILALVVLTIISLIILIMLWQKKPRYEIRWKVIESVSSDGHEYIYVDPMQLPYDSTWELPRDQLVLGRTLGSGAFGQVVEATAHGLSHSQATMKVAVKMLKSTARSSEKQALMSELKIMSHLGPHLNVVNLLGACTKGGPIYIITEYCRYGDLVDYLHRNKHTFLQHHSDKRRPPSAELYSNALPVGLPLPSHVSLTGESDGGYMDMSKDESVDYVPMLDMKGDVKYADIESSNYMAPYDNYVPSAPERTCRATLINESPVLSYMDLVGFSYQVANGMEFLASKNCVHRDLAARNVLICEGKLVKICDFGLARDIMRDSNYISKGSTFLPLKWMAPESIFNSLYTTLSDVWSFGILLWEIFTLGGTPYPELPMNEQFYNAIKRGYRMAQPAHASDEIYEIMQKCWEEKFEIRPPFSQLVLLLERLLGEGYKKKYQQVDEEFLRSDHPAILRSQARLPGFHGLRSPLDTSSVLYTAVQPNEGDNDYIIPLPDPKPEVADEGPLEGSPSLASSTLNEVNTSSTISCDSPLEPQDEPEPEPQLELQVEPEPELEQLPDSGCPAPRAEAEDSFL
In data set [10] the target is Vascular endothelial growth factor receptor 2 (Homo sapiens) (UniProt P35968). Briefly: Induction of VEGFR2 degradation in human U87 cells at 10 uM incubated for 48 hrs in presence of 4-(4-(3-(4-chloro-3-(trifluoromethyl)phenyl)ureido)phenoxy)-N-(prop-2-yn-1-yl)picolinamide by Western blot analysis. Format: cell-based.
For data set [11], the system named is U-87 MG. Briefly: Induction of apoptosis in human U87 cells assessed as late apoptotic cells at 1 uM incubated for 48 hrs in presence of 4-(4-(3-(4-chloro-3-(trifluoromethyl)phenyl)ureido)phenoxy)-N-(prop-2-yn-1-yl)picolinamide by Annexin V-FLTC/PI staining based flow cytometry (reference value: 3.71 %). Format: functional, U-87MG ATCC.
The subject of data set [12] is U-87 MG. Put plainly: Induction of apoptosis in human U87 cells assessed as early apoptotic cells at 0.1 uM incubated for 48 hrs in presence of 4-(4-(3-(4-chloro-3-(trifluoromethyl)phenyl)ureido)phenoxy)-N-(prop-2-yn-1-yl)picolinamide by Annexin V-FLTC/PI staining based flow cytometry (reference value: 8.95 %). Format: functional, U-87MG ATCC.
The test system of data set [13] is U-87 MG. Briefly: Induction of apoptosis in human U87 cells assessed as viable cells at 5 uM incubated for 48 hrs in presence of 4-(4-(3-(4-chloro-3-(trifluoromethyl)phenyl)ureido)phenoxy)-N-(prop-2-yn-1-yl)picolinamide by Annexin V-FLTC/PI staining based flow cytometry (reference value: 86.74 %). The data set is classed as functional, U-87MG ATCC. The note with it: read-out: Activity.

The target of data set [14] is Serine/threonine-protein kinase B-raf (Homo sapiens) (UniProt P15056). Put plainly: Induction of BRAF degradation in human U87 cells at 10 uM incubated for 48 hrs by Western blot analysis. The data set is classed as cell-based.
Serine/threonine-protein kinase B-raf (Homo sapiens), sequence (P15056 whole entry): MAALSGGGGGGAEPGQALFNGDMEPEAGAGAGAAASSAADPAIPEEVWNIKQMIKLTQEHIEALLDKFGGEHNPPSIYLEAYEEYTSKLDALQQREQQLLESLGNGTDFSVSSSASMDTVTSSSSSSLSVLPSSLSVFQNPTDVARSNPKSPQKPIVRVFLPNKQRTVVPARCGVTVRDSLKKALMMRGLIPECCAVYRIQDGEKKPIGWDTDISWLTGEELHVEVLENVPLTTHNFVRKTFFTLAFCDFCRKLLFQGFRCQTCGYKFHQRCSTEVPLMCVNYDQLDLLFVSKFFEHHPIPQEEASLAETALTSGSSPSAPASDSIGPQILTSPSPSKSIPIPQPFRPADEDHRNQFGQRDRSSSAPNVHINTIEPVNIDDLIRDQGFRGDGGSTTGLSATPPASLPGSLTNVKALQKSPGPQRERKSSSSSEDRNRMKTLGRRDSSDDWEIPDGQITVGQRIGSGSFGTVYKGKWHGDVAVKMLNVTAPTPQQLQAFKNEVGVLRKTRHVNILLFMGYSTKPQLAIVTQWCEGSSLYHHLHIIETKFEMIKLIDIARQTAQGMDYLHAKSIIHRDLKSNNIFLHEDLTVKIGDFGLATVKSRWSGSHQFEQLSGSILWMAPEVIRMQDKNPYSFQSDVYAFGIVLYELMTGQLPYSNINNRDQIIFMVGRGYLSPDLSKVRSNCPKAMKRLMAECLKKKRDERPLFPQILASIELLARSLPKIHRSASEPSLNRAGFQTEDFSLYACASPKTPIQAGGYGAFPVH
Data set [15] relates to U-87 MG. Put plainly: Induction of apoptosis in human U87 cells assessed as early apoptotic cells at 20 uM incubated for 48 hrs in presence of 4-(4-(3-(4-chloro-3-(trifluoromethyl)phenyl)ureido)phenoxy)-N-(prop-2-yn-1-yl)picolinamide by Annexin V-FLTC/PI staining based flow cytometry (reference value: 8.95 %). The data set is classed as functional, U-87MG ATCC.
Data set [16] in a line: Stability of compound in H2O by HPLC analysis. Format: physicochemical.
Data set [17] addresses Serine/threonine-protein kinase B-raf (Homo sapiens) (UniProt P15056). Briefly: Induction of BRAF degradation in human U87 cells at 10 uM incubated for 48 hrs in presence of 4-(4-(3-(4-chloro-3-(trifluoromethyl)phenyl)ureido)phenoxy)-N-(prop-2-yn-1-yl)picolinamide by Western blot analysis. The data set is classed as cell-based.

The source made the active and inactive calls. The rule behind the calls is not given here.

Regarding `C#CCNC(=O)c1cc(Oc2ccc(NC(=O)Nc3ccc(Cl)c(C(F)(F)F)c3)cc2)ccn1`, the result in [1], in data set [3] and in data set [9] was inactive. Besides, the viability at 0.1 µM with U-87 MG [2] was determined as 85.3%. For the same compound, the viability at 5 µM in the data set with U-87 MG [4] was found to be 1.48%. The results for the Activity in the data set on U-87 MG [5], in the data set with U-87 MG [6] and with U-87 MG [8] were 5.43%, 3.35% and 11.69%, respectively. Moreover, the outcome in data set [7] was Active.

`[N-]=[N+]=NCCCC(=O)Nc1cccc2c1C(=O)N(C1CCC(=O)NC1=O)C2=O` (configuration not stated): the outcome in [10], in data set [14] and in data set [17] was Active. The Activity in the data set with U-87 MG [11] is reported as 5.43%; in the data set on U-87 MG [12], 10.27%; with U-87 MG [15] it was 4.73%. Moreover, the viability at 5 µM in the data set on U-87 MG [13] amounted to 1.48%. Moreover, the Stability result in data set [16] is listed as “Stable”.
